Source: US20260294863A1, “METHOD OF TREATING FIBROTIC-RELATED CONDITION” (YISSUM RESEARCH DEVELOPMENT COMPANY OF THE HEBREW …, priority 2023, published 2026)
Entries after “also recorded” stand apart in the source; their conditions may differ.

What was measured:
IL6 = assay: Secretion of IL6 from BzATP/LPS-activated microglia (ELISA); format: cell-based, Balb/C mice
Protocol: (§1) Experiments were performed on primary microglial cells isolated from brains of neonatal Balb/C mice as previously described (Reichert and Rotshenker, 2003). The brains were stripped of their meninges and enzymatically dissociated. Cells were plated on Poly-L-lysine coated flasks for one week, re-plated for 1- to 2-hr on bacteriological plates and non-adherent cells were washed away. Microglia were propagated by incubation in 20% of medium, conditioned by the L-cell line that produces mouse-CSF. They were identified by morphology and positive immune-reactivity to P2y12, F4/80, complement receptor-3 and Galectin-3/MAC-2 (Reichert and Rotshenker 2003; Gitik et al. 2011).
Cytokines were measured as previously described (Shamash et al. 2002) using ELISA Max deluxe set (Biolegend, CA, USA) for secreted TNFα and IL-6 proteins and ELISA DuoSet (R&D systems, UK) for secreted and cell associated IL-1β, according to manufacturer's instructions.
The effect of ladostigil at concentrations of 1×10^−13 M to 1×10^−9 M on the secretion of cytokine proteins was assessed by adding it to microglia for 2 hr before LPS (0.75 μg/ml) and BzATP (400 μM). Other microglia were treated similarly with the steroid, budesonide as a reference standard at concentrations of 1× 10^−13 to 1× 10^−11 M. Measurements of cytokine secretion were performed 8 hrs after addition of LPS and BzATP. Since the levels of secreted IL-1β were still low, samples were concentrated 2- to 4-fold by an Amicon ultra-centrifugal filter device (Merck-Millipore, Ireland). ELISA was used to quantify the levels of cytokine proteins. Protein content in the microglia lysate was measured by Bradford and levels of cytokines were calculated and presented as pg/μg of microglial protein.

TNFAIP3 = assay: Levels of TNFAIP3 protein in microglial cytoplasm; format: cell-based, Balb/C mice
Protocol: as §1
The addition of BzATP/LPS to microglia increased cytoplasmic levels of TNFαIP3 protein and nuclear ERGR1 protein.

TNFα = TNFα in bronchial fluid, bleomycin-induced lung fibrosis (ELISA); format: in vivo, C57BL/6JOlaHsd mice; details: ladostigil, bleomycin-induced lung fibrosis
Protocol: (§2) The animal model of bleomycin-induced lung fibrosis is widely used to characterize the potential inhibitory effect of newly developed drugs (Distler et al. 2019). Experiments were performed in C57BL/6JOlaHsd male and female mice aged 12-13 weeks. Male mice weighed 23-27.3 g and female mice, 19.4-21.1 g. They were housed under pathogen-free conditions, up to 6 per cage, in IVC cages under a controlled temperature of 22-24° C., humidity and alternating 12-h light/dark cycles and provided with food and water ad libitum. In order to minimize the stress of daily injection, ladostigil (5 mg/Kg/day) was administered by micro-osmotic pumps, implanted subcutaneously under ketamine/xylazine anesthesia, 5 days before administration of bleomycin, and delivered for 3 weeks to mice of each sex. Saline (2-3/sex) and bleomycin controls were anesthetized as described above. Bleomycin solution (0.25 mg/kg in 50 μl) was instilled into the lumen of the trachea as shown in a video by Ehrentraut et al. (2019). […] TNFα and IL-6 in the bronchial fluid lavage was measured by ELISA as described in the preceding section.
(§3) Experiments were performed in C57BL/6JOlaHsd male mice aged 12-13 weeks as described for ladostigil. […] Fibrosis was measured by staining with Sirius red as described for ladostigil. TNFα and IL-6 in the bronchial fluid lavage was measured by ELISA as described for ladostigil.

IL-6 = IL-6 in bronchial fluid, bleomycin-induced lung fibrosis (ELISA); format: in vivo, C57BL/6JOlaHsd mice; details: ladostigil, bleomycin-induced lung fibrosis
Protocol: as §2, §3

TGFβ = assay: TGFβ-containing cells in skin, bleomycin-induced skin sclerosis; format: in vivo, C57BL/6 mice; details: ladostigil 10 mg/kg/day + bleomycin; p<0.05
Protocol: Male C57BL/6 mice aged 8 weeks were housed under pathogen-free conditions at a controlled temperature of 22-24° C., humidity and alternating 12-h light/dark cycles and provided with food and water ad libitum. Skin sclerosis was induced as described by Ravanetti et al, (2020). A small incision was made in the skin at the back caudal to the scapulae and subcutaneous pocket was created into which an Alzet micro-osmotic pump was implanted, and the incision closed with two stiches and a surgical clip. The pumps contained bleomycin, (delivered at the rate of 60 U/kg body weight) or saline (control) and were removed 10 days after implantation. The mice were monitored daily until they recovered completely and weighed twice weekly from the beginning of the experiment.
Ladostigil (10 mg/kg/day) was administered in the drinking fluid to 10 mice, housed 2/cage, from 3 days before bleomycin pump installation until the end of the experiment. The fluid intake of the mice was measured daily. The dose of ladostigil was adjusted accordingly. Bleomycin alone, (10 mice) and saline controls (6 mice) received regular drinking fluid.

[1] = test system: cells (oxidative stress induced by Sin 1); details: cited from earlier work
[2] = test system: primary mouse microglial cultures activated by lipopolysaccharide (LPS); details: cited from earlier work
NFκB = details: LPS; cited from earlier work

C#CCN[C@@H]1CCc2ccc(OC(=O)N(C)CC)cc21 [Ladostigil, 6-(N-ethyl, N-methylcarbamyloxy)-N propargyl-1 (R)-aminoindan hemitartrate]
Emax (IL6; Mus musculus, Microglia, 8 h, 1×10^−11-1×10^−9 M, read-out: maximal reduction of IL6): ~50%
minimal effective concentration (IL6; Mus musculus, microglia, BzATP/LPS, medium containing BSA, 8 hrs, read-out: lowest concentration that significantly decreased IL6 secretion): 1e-07 µM
reduction of IL6 release (IL6; all concentrations tested, added 2 hrs before BzATP and LPS, 0.1% BSA, p<0.01): reduced the 3 cytokines significantly
reduction of IL6 compared with reduction of TNF (IL6; all concentrations tested, p<0.001): greater than those of TNF
Mean conc. ± SEM of TNFAIP3 in microglial cytoplasm (TNFAIP3; BzATP/LPS, ladostigil 1×10^−10 M, Medium 19.8 ± 0.6): 28.8 ± 0.9
change in cytoplasmic TNFαIP3 protein (TNFAIP3; microglia, ladostigil 1×10^−10 M on top of BzATP/LPS): further increase
TNFα in bronchial fluid (TNFα): generally not affected; also recorded: did not reduce
IL-6 in bronchial fluid (IL-6): generally not affected; also recorded: did not reduce
number of TGFβ-containing cells in the skin (TGFβ): significantly reduced the number of TGFβ-containing cells
concentration preventing oxidative stress, fold lower than those inhibiting AChE or MAO [1]: 20 -fold
oxidative stress in cells / fall in mitochondrial potential ([1]; induced by Sin 1): prevented oxidative stress in cells
IL1β gene expression [2]: decreased gene expression
IL-6 gene expression [2]: decreased gene expression
TNFα gene expression [2]: decreased gene expression
nuclear translocation of NFκB (NFκB): decrease in the nuclear translocation of NFκB
